Reference: patent US6479491B1, “Disubstituted morpholine, oxazepine or thiazepine derivatives, their preparation and their use as dopamine d4 receptor antagonists” (Neurosearch A/S, priority 1996, dated 2002)
Where a name gives a salt, the structure may show the parent alone.

What was measured:
[1] = target: T1, D4.2 Dopamine Receptors (Human Recombinant) (Homo sapiens, UniProt P21917, DEL265-296); test: In vitro inhibition of 3H-spiperone binding to D4.2 dopamine receptors (human recombinant); conditions: for IC50: IC50 for inhibition of specific 3H-spiperone (0.5 nM) binding, membranes of CHO cells transfected with human recombinant D4.2 receptor
T1 construct: purchased RBI D-195; host or cells: Chinese Hamster Ovary (CHO) cells, transfected; supplied as frozen membranes
T1 sequence (P21917 with tags, fused parts or gaps DEL265-296): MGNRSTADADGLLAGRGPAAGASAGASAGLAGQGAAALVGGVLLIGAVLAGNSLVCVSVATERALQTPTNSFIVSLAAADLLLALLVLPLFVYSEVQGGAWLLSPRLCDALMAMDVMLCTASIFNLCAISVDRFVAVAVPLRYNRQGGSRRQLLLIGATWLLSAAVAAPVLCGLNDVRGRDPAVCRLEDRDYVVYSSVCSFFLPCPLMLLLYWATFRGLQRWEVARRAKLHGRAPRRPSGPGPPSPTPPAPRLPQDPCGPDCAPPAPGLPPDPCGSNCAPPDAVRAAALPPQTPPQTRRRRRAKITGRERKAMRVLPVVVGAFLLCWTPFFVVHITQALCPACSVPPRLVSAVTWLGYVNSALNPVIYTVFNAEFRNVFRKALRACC
Protocol: II) In Vitro Inhibition of ^3H-spiperone Binding to D4.2 Dopamine Receptors (Human Recombinant)
Membranes are suspended in 10 mM Tris-HCl (pH 7.2) containing 2 mM EDTA, and stored tightly sealed at −80° C.
Asssay: The membranes are thawed and diluted in incubation buffer (50 mM Tns-HCl, pH 7.4, containing 120 mM NaCl, 5 mM KCl, 5 mM MgCl2 and 1 mM EDTA) —0.25 ml of membranes to 4.75 ml of incubation buffer. Aliquots of 100 μl of diluted membranes are added to 100 μl of test solution and 50 μl of ^3H-spiperone (0.5nM, final concentration). Finally, 750 μl incubation buffer is added and the assay mixture is incubated for 60 min at 25° C. Non-specific binding is determined using haloperidol (1 μM, final concentration). After incubation the assay is terminated by rapid filtration over GF/C glass fibre filters (presoaked in 0.1% PEI for at least 20 min), then washed twice with 5 ml ice cold 50 mM Tris-HCl in 0.9% NaCl at pH 7.4. The amount of radioactivity on the filters is determined by conventional liquid scintillation counting. Specific binding is total binding minus non-specific binding.

[2] = target: T2, D2 dopamine Receptors (Rattus norvegicus, UniProt P61169); test: In vitro inhibition of 3H-spiperone binding to D2 dopamine receptors; conditions: for IC50: IC50 for inhibition of specific 3H-spiperone (0.2 nM) binding, corpus striatum of male Wistar rats
T2 construct: Corpus Striatum from male Wistar rats (150-200 g) is homogenized; from tissue; host or cells: rat corpus striatum
T2 sequence (P61169 whole entry): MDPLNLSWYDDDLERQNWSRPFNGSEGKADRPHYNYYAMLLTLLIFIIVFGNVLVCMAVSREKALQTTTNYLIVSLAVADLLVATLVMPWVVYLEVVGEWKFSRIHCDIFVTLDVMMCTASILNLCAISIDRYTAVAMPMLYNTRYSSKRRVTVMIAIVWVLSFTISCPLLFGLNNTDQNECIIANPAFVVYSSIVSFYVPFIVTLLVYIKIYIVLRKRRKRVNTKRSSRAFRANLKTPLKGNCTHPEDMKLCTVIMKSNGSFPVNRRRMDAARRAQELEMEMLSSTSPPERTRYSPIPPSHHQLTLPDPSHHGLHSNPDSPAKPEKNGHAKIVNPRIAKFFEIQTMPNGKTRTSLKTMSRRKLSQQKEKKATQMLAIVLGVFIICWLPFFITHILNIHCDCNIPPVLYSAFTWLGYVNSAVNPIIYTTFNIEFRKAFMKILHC
Protocol: I) In vitro Inhibition of ^3H-spiperone Binding to D2 dopamine Receptors
Tissue preparation: Preparations are performed at 0-4° C. unless otherwise indicated. Corpus Striatum from male Wistar rats (150-200 g) is homogenized for 5-10 sec in 10 ml KH2PO4 (50 mM, pH 7.4) using an Ultra-Turrax homogenizer. The suspension is centrifuged at 27,000×g for 15 min. The supematant is discarded and the pellet is resuspended in 50 mM KH2PO4, pH 7.4 (2000 ml per g of original tissue) and used for binding assays.
Assay: Aliquots of 0.5 ml tissue are added to 25 μl of test solution and 25 μl of ^3H-spiperone (0.2 nM, final concentration), mixed and incubated for 20 min at 37° C. Non-specific binding is determined using butadamol (1 μM, final concentration). After incubation the samples are placed on ice for 10 min. The assay is terminated by addition of 5 ml of ice-cold buffer and poured directly onto Whatman GF/C glass fibre filters (presoaked in 0.1% PEI for at least 20 min) under suction and immediately washed with 5 ml ice-cold buffer. The amount of radioactivity on the filters is determined by conventional liquid scintillation counting. Specific binding is total binding minus non-specific binding.

| melting point [°C] | affinity for dopamine D4 receptors (in words) ([1]; qualitative statement) | affinity for dopamine D2 receptors (in words) ([2]; qualitative statement) | SMILES | IC50 [1] [nM] | IC50 [2] [nM] |
| --- | --- | --- | --- | --- | --- |
| 80 to 110 | – | – | COc1ccc(N)cc1OCC1CN(Cc2ccc(Cl)cc2)CCO1.O=C(O)C(=O)O (racemic) | – | – |
| – | – | – | COc1cc(Cl)ccc1OCC1CN(Cc2ccc(Cl)cc2)CCCO1 (racemic) [(±)-2-[(4-chloro-2-methoxyphenoxy)methyl]-4-(4-chlorobenzyl)perhydro oxazepine oxalic acid salt] | 2.5 | > 10000 |
| – | – | – | COc1cc(Cl)ccc1OCC1CN(Cc2ccc(Cl)cc2)CCO1 (racemic) [(±)-4-(4-Chlorobenzyl)-2-[(4-chloro-2-methoxyphenoxy)methyl]morpholine oxalic acid salt] | 4 | > 10000 |
| – | no or only low affinity | no or only low affinity | CCOc1ccccc1OCC1CNCCO1 (stereo not shown) [Viloxazine, 2-[(2-ethoxy-phenoxy)methyl]morpholine, reference compound] | – | – |
